Experimental data: publication PMC5940854, “Nitrothiophene carboxamides, a novel narrow spectrum antibacterial series: Mechanism of action and Efficacy” (Scientific Reports, 2018)
≈ marks a conversion by molar mass, not a printed value.

Legend:
[1] = system: Shigella sonnei clinical strain; test: MIC, Shigella sonnei; assay type: cell-based
Experimental: (§1) The inoculum used for all the experiments is derived from a single seed lot that is maintained as glycerol stocks at −80 °C and are sub cultured on LB plate for isolated colonies. Single colony of each strain is grown in M9 medium. All test compound stocks and dilutions are prepared in DMSO. Serial two-fold dilutions of compounds are prepared separately, with the concentrations ranging from 2 mg/mL to 0.015 mg/mL. To 150 µl (3–7 × 10^5 CFU/ml) of bacterial culture in 96 well microtitre plates, 3 μL compound from each of the dilutions is added to respective wells to obtain final concentrations ranging from 40 µg/mL to 0.3 µg/mL of the test compounds. Media control, culture control and appropriate reference drug controls are included. […] Growth is monitored by checking absorbance at 600 nm (A600). […] The samples from MIC and above concentrations are plated for MBC (Minimum Bactericidal Concentration). The samples are diluted 1:10 and plated on LB agar plates. […] The killing kinetics is determined by enumerating survivors at various time points following compound exposure. E. coli cells (~10^7 CFU/ml; A600 of 0.1) are treated with various concentrations (40 µg/mL to 0.3 µg/mL) of compounds in a 96-well microtitre plate. […] Data is expressed as the log10 CFU for each drug treatment.

[2] = Oral pharmacokinetics; assay type: in vivo, BALB/c mice; parameters: Ke: unit not given here; settings: for AUC / AUC(0-inf) / AUC(0-t) / Cmax / Tmax / half-life / bioavailability: BALB/c, mouse, plasma; for AUC: po; for AUC(0-inf) / AUC(0-t) / Cmax / Tmax / half-life / Ke / ext AUC: mice
Experimental: The test substances were formulated in 10% DMSO in 0.25% carboxy methyl cellulose. […] Then 3.6 ml of 0.25% of CMC was added in aliquots to the DMSO solution, with constant grinding using a pestle until a uniform suspension was obtained. […]
At 5 min, 15 min, 30 min, 1 h, 2 h, 4 h, 8 h, and 24 h time points, and prior to sampling, mice were anaesthetized with isoflurane. From each mouse, two blood samples were drawn; the 1st was non-terminal (0.1 ml) and the 2nd terminal, by retro-orbital plexus puncture using heparanised capillary tubes. Blood was collected in 2 ml Eppendorf tubes containing 0.01 ml of 10% K2EDTA as anticoagulant, mixed gently and placed in ice before centrifugation. Blood was centrifuged at 10,000 rpm for 5 min, and plasma was harvested and stored at −80 °C until bioanalysis.
Ultrafast liquid chromatography mass spectrometric method was used for the estimation of test compounds in pre-clinical study samples. The analysis was performed using an API 4000 LC-MS/MS system. The interface used with the API 4000 LC-MS/MS was a Turbo Ion spray. The positive ions were measured in MRM mode. The analyte was extracted using a solid-phase extraction procedure. The data was acquired by and integrated using the Applied Biosystems “Analyst” version 1.5.2 software. Linear regression, with 1/x^2 weighting was used for calibration.
Non-compartmental (NCA) PK analysis was performed using MS Excel. The linear trapezoidal rule was used to estimate the AUC. The NCA analysis was performed using the following equations (3) on mean concentration time data: AUC=Σ[(Ci1+Ci2)/2]∗[ti2−ti1] AUMC=Σ[((Ci1∗ti1)+(Ci2∗ti2))/2)∗(ti2−ti1)] AUCt−∞=Clast/Kel AUC0−∞=AUC0−t+AUCt−∞ AUCextrapolated(%)=[AUCt−∞/AUC0−∞]∗100 where, Ci1 and Ci2 are the concentrations at times ti1 and ti2, respectively. Kel=ln(Cx/Cy)/(ty−tx) where, Kel is the first order elimination rate constant, ln is the natural logarithm, Cx and Cy are the first and last concentrations, respectively on the linear portion of the terminal phase of the concentration-time profile, and ty and tx are the corresponding time points. T1/2=0.693/Kel Cl=Doseiv/AUC0−∞ Vss=(AUMC0−∞/AUC0−∞)∗(Doseiv/AUC0−∞) Cmax and tmax were visually estimated from the mean oral conc-time profile F(%)=(AUCpo/AUCiv)∗(Doseiv/Dosepo)∗100

[3] = system: E. coli BW25113; test: Neutropenic thigh infection, E. coli BW25113; assay type: in vivo, BALB/c mice
[4] = system: E. coli ∆acrB JW0451-2; test: Neutropenic thigh infection, E. coli ∆acrB; assay type: in vivo, BALB/c mice
[5] = system: E. coli macB knockout strain; test: MIC, efflux pump knockout macB; assay type: cell-based; settings: Escherichia coli, read-out: MIC macB
Experimental: as §1

[6] = system: E. coli acrD knockout strain; test: MIC, efflux pump knockout acrD; assay type: cell-based; settings: Escherichia coli, read-out: MIC acrD
Experimental: as §1

[7] = system: E. coli emrY knockout strain; test: MIC, efflux pump knockout emrY; assay type: cell-based; settings: Escherichia coli, read-out: MIC emrY
Experimental: as §1

[8] = system: E. coli mdfA knockout strain; test: MIC, efflux pump knockout mdfA; assay type: cell-based; settings: Escherichia coli, read-out: MIC mdfA
Experimental: as §1

[9] = system: E. coli acrF knockout strain; test: MIC, efflux pump knockout acrF; assay type: cell-based; settings: Escherichia coli, read-out: MIC acrF
Experimental: as §1

[10] = system: E. coli acrZ knockout strain; test: MIC, efflux pump knockout acrZ; assay type: cell-based; settings: Escherichia coli, read-out: MIC acrZ
Experimental: as §1

[11] = system: E. coli bcr knockout strain; test: MIC, efflux pump knockout bcr; assay type: cell-based; settings: Escherichia coli, read-out: MIC bcr
Experimental: as §1

[12] = system: E. coli mdtG knockout strain; test: MIC, efflux pump knockout mdtG; assay type: cell-based; settings: Escherichia coli, read-out: MIC mdtG
Experimental: as §1

[13] = system: E. coli emrB knockout strain; test: MIC, efflux pump knockout emrB; assay type: cell-based; settings: Escherichia coli, read-out: MIC emrB
Experimental: as §1

[14] = system: WT E. coli; test: MIC on WT E. coli in the presence of PAβN; assay type: cell-based; settings: Escherichia coli
Experimental: as §1

[15] = system: E. coli mdtK knockout strain; test: MIC, efflux pump knockout mdtK; assay type: cell-based; settings: Escherichia coli, read-out: MIC mdtK
Experimental: as §1

[16] = system: E. coli mdtB knockout strain; test: MIC, efflux pump knockout mdtB; assay type: cell-based; settings: Escherichia coli, read-out: MIC mdtB
Experimental: as §1

[17] = system: E. coli emrE knockout strain; test: MIC, efflux pump knockout emrE; assay type: cell-based; settings: Escherichia coli, read-out: MIC emrE
Experimental: as §1

`O=C(Nc1nc(-c2ccc(F)cc2F)cs1)c1ccc([N+](=O)[O-])s1` [compound 12, N-(4-(2,4-difluorophenyl)thiazol-2-yl)-5-nitrothiophene-2-carboxamide] gave an MIC Shigella sonnei [1] of 5 µg/mL (≈ 13.6 µM), an AUC ([2]; 10 mg/kg) of 760 ng·h/mL and an AUC(0-inf) ([2]; single oral dose 10 mg/kg) of 760 ng·h/mL. For the same compound, the AUC(0-t) ([2]; single oral dose 10 mg/kg) was 750 ng·h/mL, the Cmax ([2]; single oral dose 10 mg/kg) was 650 ng/mL and the Tmax ([2]; single oral dose 10 mg/kg) was 15 min. The half-life ([2]; single oral dose 10 mg/kg) was 61.8 min, the bioavailability ([2]; oral 10 mg/kg vs IV 2 mg/kg) was 26.7% and the Ke ([2]; single oral dose 10 mg/kg) was 0.67. For the same compound, the “ext AUC” value ([2]; single oral dose 10 mg/kg) was 0.5%.

For `O=C(Nc1nc(-c2ccc(F)cc2)cs1)c1ccc([N+](=O)[O-])s1` [compound 15, N-(4-(4-Fluorophenyl)thiazol-2-yl)-5-nitrothiophene-2-carboxamide], the “Log10CFU Mean Diff. vs. Untreated Controls” value ([3]; Study TI-2014-008, BW25113, 30mg/kg per oral) was 0.9167 Log10CFU, the “Log10CFU Mean Diff. vs. Untreated Controls” value ([3]; Study TI-2014-008, BW25113, 100mg/kg per oral) was 1.643 Log10CFU and the “efficacy in thigh infection model (in words)” value ([3]; WT E. coli BW25113) was “significantly bactericidal”. For the same compound, the AUC ([2]; 10 mg/kg) was 750 ng·h/mL, the AUC ([2]; 100 mg/kg) was 10300 ng·h/mL and the AUC(0-inf) ([2]; single oral dose 10 mg/kg) was 760 ng·h/mL. The AUC(0-t) ([2]; single oral dose 10 mg/kg) was 750 ng·h/mL, the Cmax ([2]; single oral dose 10 mg/kg) was 1200 ng/mL and the Tmax ([2]; single oral dose 10 mg/kg) was 15 min. The half-life ([2]; single oral dose 10 mg/kg) was 289 min, the AUC(0-t) ([2]; single oral dose 100 mg/kg) was 10300 ng·h/mL and the Cmax ([2]; single oral dose 100 mg/kg) was 3800 ng/mL. The Tmax ([2]; single oral dose 100 mg/kg) was 15 min, the bioavailability ([2]; oral 10 mg/kg vs IV 2 mg/kg) was 16.5% and the bioavailability ([2]; oral 100 mg/kg vs IV 2 mg/kg) was 22.6%. For the same compound, the Ke ([2]; single oral dose 10 mg/kg) was 0.14, the “ext AUC” value ([2]; single oral dose 10 mg/kg) was 1.5% and the “efficacy in thigh infection model (in words)” value ([4]; E. coli ∆acrB JW0451-2) was “significantly bactericidal”. For the same compound, the “Log10CFU Mean Diff. vs. Untreated Controls” value ([4]; Study TI-2014-007, ∆acrB JW0451-2, 10mg/kg per oral) was 0.2933 Log10CFU, the “Log10CFU Mean Diff. vs. Untreated Controls” value ([4]; Study TI-2014-007, ∆acrB JW0451-2, 30mg/kg per oral) was 1.943 Log10CFU and the “Log10CFU Mean Diff. vs. Untreated Controls” value ([4]; Study TI-2014-007, ∆acrB JW0451-2, 100mg/kg per oral, 6 hours post treatment) was 2.436 Log10CFU. For the same compound, the “Log10CFU Mean Diff. vs. Untreated Controls” value ([4]; Study TI-2014-008, ∆acrB JW0451-2, 30mg/kg per oral) was 1.497 Log10CFU and the “Log10CFU Mean Diff. vs. Untreated Controls” value ([4]; Study TI-2014-008, ∆acrB JW0451-2, 100mg/kg per oral) was 2.253 Log10CFU.

Work on `Cc1sc(NC(=O)c2ccc([N+](=O)[O-])s2)nc1-c1ccccc1` [compound 7, N-(5-Methyl-4-phenylthiazol-2-yl)-5-nitrothiophene-2-carboxamide] yielded an MIC [5] greater than 40 µg/mL, an MIC [6] greater than 40 µg/mL and an MIC [7] greater than 40 µg/mL. It also gave an MIC [8] greater than 40 µg/mL, an MIC [9] greater than 40 µg/mL and an MIC [10] greater than 40 µg/mL. The MIC [11] was greater than 40 µg/mL, the MIC [12] was greater than 40 µg/mL and the MIC [13] was greater than 40 µg/mL. For the same compound, the MIC [14] was less than 0.3 µg/mL, the MIC [15] was greater than 40 µg/mL and the MIC [16] was greater than 40 µg/mL. The MIC [17] was greater than 40 µg/mL.
